Assay results taken from US5476848A, “14B(R) isomers of novel tetracyclic compounds having anti-allergic and anti-asthmatic activities, and their use” (Sankyo Company, Limited, priority 1989, dated 1995).
Structures can show the parent of a compound that is named as a salt.

Key:
[1] = test system: eosinophil accumulation; test: Inhibitory effect on antigen induced eosinophil accumulation (Test Example 4); type: in vivo, guinea pig (male Hartley); conditions: po, 1 hr before antigen challenge, BALF 24 hr after; for Inhibitory effect (%) on accumulation of eosinophil: 0.1 mg/kg; for inhibition at 0.1 mg/kg: Cavia porcellus, Eosinophil;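 on all read-outs here: oral dose 0.1 mg/kg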
Experimental: Male Hartley guinea pigs weighing approximately 400 g were sensitized with ovalbumin by the method described by Engineer et al. (Engineer, D. M. et al., J. Pharmacol., 62, 61-66 (1978)), and the number of eosinophils infiltrating into the bronchoalveolar space due to antigen challenge was examined.
Briefly, the animals were exposed to the antigen (ovalbumin) for 6 min. At 24 hr. after antigen challenge, the guinea pigs were anesthetized with pentobarbital (30 mg/kg, i.p.). The trachea was cannulated by a disposable intravenous catheter, and the airway lumen (especially in the right posterior lobe) was washed with 0.9% saline (10 ml/kg) kept at 37° C. The bronchoalveolar lavage fluid (BALF) from each animal was centrifuged (150 g for 10 min at 4° C.). After removing the supernatant, the cell pellet was resuspended in HBSS (Hank's balanced solution) and a total cell count was performed using a standard hemocytometer. Differential cell counts were done on smears fixed in methanol and stained with Wright-Giemsa solution, and by light microscopy under oil immersion (×1000). The proportion of eosinophil population was expressed as a percentage of total cells, and this ratio together with the total cell count was used to calculate the total number of eosinophils. The percent inhibition of the test compounds which was administered 1 hr before antigen challenge, was calculated as follows:
Percent inhibition=[1-(C-A)/(B-A)]×100
A: negative control: mean value of cell counts in BALF from the animals with inhaled saline
B: positive control: mean value of cell counts in BALF from the animals 24 h after antigen challenge
C: cell counts of BALF for the animals pretreated with a test compound 24 h after antigen challenge

[2] = test system: eosinophil chemotaxis; test: Inhibitory effect of eosinophil chemotaxis to zymosan-activated serum (Test Example 4); type: cell-based, guinea pig; conditions: for Inhibitory effect (%) on chemotaxis of eosinophil / inhibition at 0.1 µg/mL: 0.1 μg/ml, ZAS; for inhibition at 0.1 µg/mL: Cavia porcellus, Eosinophil; for potency of the R-isomer relative to the racemate: eosinophil table, R-isomer vs racemate
Source text: Eosinophils were harvested from the peritoneal cavity of polymyxin B-treated guinea pigs (body weight, approx. 400 g) according to the method described by Pincus (Pincus, S. H. et al.: Blood, 52, 127-134 (1978)). The eosinophils were separated and purified by Ficoll-paque (Pharmacia) density gradient centrifugation. Then, the eosinophil chemotaxis to zymosan-activated serum (ZAS) was investigated by a modification of the Boyden micropore filter technique (Gosset, P. et al.: Clin. Exp. Immunol., 65, 654-663 (1986)). Briefly, the assay was carried out in a 48-well microchemotaxis assembly (Neuroprobe; Cabin John, Md., U.S.A.). Cell suspensions were adjusted to 2.5×10^5 /50 μl, and placed in the upper chamber separated from the chemoattractant (ZAS) solution in the lower chamber by a 3 μm pore size polycarbonate membrane filter (Nucleopore Co., Pleasanton, U.S.A.). The cells were incubated for 10 min at 37° C. with the test compounds, prior to their addition to the chemotaxis chamber. Migration was carried out at 37° C. in humidified air with 5% CO2 for 2 h. After the incubation, the migrated eosinophils in the lower Chamber were counted by a hemocytometer.
The percentage inhibition obtained with the test compound was calculated by comparison to the positive control (migration of non-treated cells in response to the ZAS), according to the formula:
Percent inhibition=[1-(A/B)]×100
A: (migration with a test compound)-(spontaneous migration)
B: (positive control migration)-(spontaneous migration)

[3] = test system: Passive Cutaneous Anaphylaxis (PCA); test: Inhibitory effect on passive cutaneous anaphylaxis (PCA) in rats (Test Example 1); type: in vivo, rat (male SD); conditions: Rattus norvegicus, po, read-out: Inhibitory rate
Experimental: Male SD rats (5 weeks old) were used as the test animals in groups, each containing 4 animals. The rats were sensitized by intradermal injection of 0.05 ml of the diluted antiserum solution in the dorsal position. 48 hours after this injection, a suspension of the test compound in an aqueous 0.5% w/v tragacanth solution was orally administered to the rats, fasted for one day, and 60 minutes later they were injected in the caudal vein with 5 ml/kg body weight of physiological saline containing 0.4% w/v egg albumin and 1.0% w/v Evans Blue.
The inhibitory rate was calculated by the following equation.
Inhibitory rate (%)=(1-B/A)×100
A: amount of exuded dye in the control group
B: amount of exuded dye in the test group.

[4] = test system: Antigen-induced Bronchoconstriction; test: Effect on antigen-induced bronchoconstriction in sensitized guinea pigs (Test Example 2); type: in vivo, guinea pig (male Hartley); conditions: Cavia porcellus, po, 60 min before challenge, read-out: Inhibitory rate
Experimental: The test animals used were male guinea pigs of the Hartley strain (weighing about 400 to 500 g). These animals were sensitized according to Morris' method [H. R. Morris; Br. J. Pharmac., 67, 179-184 (1979)]. The guinea pigs were subcutaneously and intraperitoneally injected twice, each time with 25 mg of egg albumin (grade 5, Sigma) at weekly intervals. 7 days after the second of these weekly injections, the animals were fasted for one day and then exposed to an aerosol of egg albumin (10 mg/ml). All of the animals so exposed responded with convulsions, indicating respiratory distress due to airway constriction, within 6 minutes.
60 minutes before the egg albumin challenge, one of the test compounds shown in the following Table 5 was administered orally to each of the animals.

CCOC(=O)CCCN1CCN2c3ccccc3Cc3ccccc3C2C1 (racemic) [19 HCl racemate]
Inhibitory effect (%) on accumulation of eosinophil [1]: 48% | Inhibitory effect (%) on chemotaxis of eosinophil [2]: 5%

CCOC(=O)CCCN1CCN2c3ccccc3Cc3ccccc3C2C1 (racemic) [19 fumarate racemate]
Inhibitory effect (%) on accumulation of eosinophil [1]: 24% | inhibition at 0.1 µg/mL [2]: 3%

CCOC(=O)CCCCCN1CCN2c3ccccc3Cc3ccccc3C2C1 (racemic) [21 HCl racemate]
inhibition at 0.1 mg/kg [1]: 37% | inhibition at 0.1 µg/mL [2]: 23%

O=C(O)CCCN1CCN2c3ccccc3Cc3ccccc3C2C1 (racemic) [22 HCl racemate]
Inhibitory effect (%) on accumulation of eosinophil [1]: 31% | Inhibitory effect (%) on chemotaxis of eosinophil [2]: 6%

O=C(O)CCCN1CCN2c3ccccc3Cc3ccccc3C2C1 (racemic) [22 free racemate]
Inhibitory effect (%) on accumulation of eosinophil [1]: 3% | inhibition at 0.1 µg/mL [2]: 9%

O=C(O)CCCCCN1CCN2c3ccccc3Cc3ccccc3C2C1 (racemic) [24 HCl racemate]
inhibition at 0.1 mg/kg [1]: 43% | inhibition at 0.1 µg/mL [2]: 25%

CCOC(=O)CCCN1CCN2c3ccccc3Cc3ccccc3C2C1 (racemic) [Example 19, Ethyl 4-(1,2,3,4,10,14b-hexahydrodibenzo[c,f]pyrazino[1,2-a]azepin-2-yl)butanoate]
inhibition at 0.05 mg/kg [3]: 55% | inhibition at 0.2 mg/kg [3]: 61% | inhibition at 0.025 mg/kg [4]: 40% | inhibition at 0.4 mg/kg [4]: 100%

O=C(O)CCCCCN1CCN2c3ccccc3Cc3ccccc3C2C1 (racemic) [Example 24, 6-(1,2,3,4,10,14b-Hexahydrodibenzo[c,f]pyrazino[1,2-a]azepin-2-yl)hexanoic acid]
inhibition at 0.05 mg/kg [3]: 46% | inhibition at 3.1 mg/kg [3]: 74% | inhibition at 0.1 mg/kg [4]: 80% | inhibition at 0.4 mg/kg [4]: 100%

CCOC(=O)CCCN1CCN2c3ccccc3Cc3ccccc3[C@@H]2C1 [19 HCl R-isomer]
Inhibitory effect (%) on accumulation of eosinophil [1]: 58% | Inhibitory effect (%) on chemotaxis of eosinophil [2]: 43%

CCOC(=O)CCCN1CCN2c3ccccc3Cc3ccccc3[C@H]2C1 [19 HCl S-isomer]
Inhibitory effect (%) on accumulation of eosinophil [1]: 41% | Inhibitory effect (%) on chemotaxis of eosinophil [2]: 1%

CCOC(=O)CCCN1CCN2c3ccccc3Cc3ccccc3[C@@H]2C1 [19 fumarate R-isomer]
inhibition at 0.1 mg/kg [1]: 62% | inhibition at 0.1 µg/mL [2]: 55%

CCOC(=O)CCCN1CCN2c3ccccc3Cc3ccccc3[C@H]2C1 [19 fumarate S-isomer]
inhibition at 0.1 mg/kg [1]: 32% | Inhibitory effect (%) on chemotaxis of eosinophil [2]: 0%

CCOC(=O)CCCCCN1CCN2c3ccccc3Cc3ccccc3[C@@H]2C1 [21 HCl R-isomer]
inhibition at 0.1 mg/kg [1]: 80% | inhibition at 0.1 µg/mL [2]: 50% | potency of the R-isomer relative to the racemate [2]: about double the potency

CCOC(=O)CCCCCN1CCN2c3ccccc3Cc3ccccc3[C@H]2C1 [21 HCl S-isomer]
inhibition at 0.1 mg/kg [1]: 13% | inhibition at 0.1 µg/mL [2]: 9%

O=C(O)CCCN1CCN2c3ccccc3Cc3ccccc3[C@H]2C1 [22 HCl S-isomer]
inhibition at 0.1 mg/kg [1]: 47% | inhibition at 0.1 µg/mL [2]: 5%

O=C(O)CCCCCN1CCN2c3ccccc3Cc3ccccc3[C@@H]2C1 [24 HCl R-isomer]
inhibition at 0.1 mg/kg [1]: 62% | inhibition at 0.1 µg/mL [2]: 47% | potency of the R-isomer relative to the racemate [2]: about double the potency

O=C(O)CCCCCN1CCN2c3ccccc3Cc3ccccc3[C@H]2C1 [24 HCl S-isomer]
inhibition at 0.1 mg/kg [1]: 2% | inhibition at 0.1 µg/mL [2]: 0%

CCOC(=O)COCCN1CCN2c3ccccc3Cc3ccccc3C2C1 (centres unmarked) [Example 1]
inhibition at 0.2 mg/kg [3]: 56% | inhibition at 3.1 mg/kg [3]: 65% | inhibition at 0.025 mg/kg [4]: 20% | inhibition at 0.1 mg/kg [4]: 50%

O=C(O)COCCN1CCN2c3ccccc3Cc3ccccc3C2C1 (centres unmarked) [Example 2]
inhibition at 0.05 mg/kg [3]: 62% | inhibition at 0.8 mg/kg [3]: 74% | inhibition at 0.025 mg/kg [4]: 20% | inhibition at 0.1 mg/kg [4]: 80%

CCOC(=O)COCCN1CCN2c3ccc(Cl)cc3Cc3ccccc3C2C1 (centres unmarked) [Example 4]
inhibition at 3.1 mg/kg [3]: 63%

COC(=O)COCCN1CCN2c3ccc(Br)cc3Cc3ccccc3C2C1 (centres unmarked) [Example 5, Methyl 2-(8-bromo-1,2,3,4,10,14b-hexahydrodibenzo[c,f]pyrazino[1,2-a]azepin-2-yl)ethoxyacetate]
inhibition at 0.8 mg/kg [3]: 23% | inhibition at 3.1 mg/kg [3]: 67%

OCCOCCOCCN1CCN2c3ccccc3Cc3ccccc3C2C1 (centres unmarked) [Example 7]
inhibition at 0.8 mg/kg [3]: 50% | inhibition at 3.1 mg/kg [3]: 57% | inhibition at 12.5 mg/kg ([3]; 12.5 mg/kg): 72% | inhibition at 0.4 mg/kg [4]: 100%

O=C(O)COCCN1CCN2c3ccc(Cl)cc3Cc3ccccc3C2C1 (centres unmarked) [Example 9]
inhibition at 3.1 mg/kg [3]: 63%

O=C(O)COCCN1CCN2c3ccc(Br)cc3Cc3ccccc3C2C1 (centres unmarked) [Example 10]
inhibition at 3.1 mg/kg [3]: 53%

O=C(O)COCCN1CCN2c3ncccc3Cc3ccccc3C2C1 (centres unmarked) [Example 11, 2-(1,2,3,4,10,14b-Hexahydrobenzo[c]pyrazino[1,2-a]pyrido[5,6-c]azepin-2-yl)ethoxyacetic acid]
inhibition at 0.8 mg/kg [3]: 49% | inhibition at 3.1 mg/kg [3]: 60%

OCCCN1CCN2c3ccccc3Cc3ccccc3C2C1 (centres unmarked) [Example 16, 3-(1,2,3,4,10,14b-Hexahydrodibenzo[c,f]pyrazino[1,2-a]azepin-2-yl)propanol]
inhibition at 0.8 mg/kg [3]: 48% | inhibition at 3.1 mg/kg [3]: 63% | inhibition at 0.1 mg/kg [4]: 60% | inhibition at 0.4 mg/kg [4]: 100%

OCCCCCCN1CCN2c3ccccc3Cc3ccccc3C2C1 (centres unmarked) [Example 18, 6-(1,2,3,4,10,14b-Hexahydrodibenzo[c,f]pyrazino[1,2-a]azepin-2-yl)hexanol]
inhibition at 0.4 mg/kg [4]: 100%

CN(C)C(=O)COCCN1CCN2c3ccccc3Cc3ccccc3C2C1 (stereo not drawn) [Example 27, α-[2-(1,2,3,4,10,14b-Hexahydrodibenzo[c,f]pyrazino[1,2-a]azepin-2-yl)ethoxy]-N,N-dimethylacetamide]
inhibition at 3.1 mg/kg [3]: 69%

CCCN(CCC)C(=O)COCCN1CCN2c3ccccc3Cc3ccccc3C2C1 (stereo not drawn) [Example 31, α-[2-(1,2,3,4,10,14b-Hexahydrodibenzo[c,f]pyrazino[1,2-a]azepin-2-yl)ethoxy]-N,N-dipropylacetamide]
inhibition at 0.8 mg/kg [3]: 32% | inhibition at 3.1 mg/kg [3]: 76%

O=C(O)CN1CCN2c3ccccc3Cn3cccc3C2C1 (centres unmarked) [Prior art compound G, Sodium (1,3,4,14btetrahydro-2H,10H-pyrazino[1,2a]pyrrolo[2,1c][1,4]benzodiazepin-yl)acetate, reference compound]
inhibition at 3.1 mg/kg [3]: 28%
